Where only a bound is given, the exact number is not on record here.

The test system of assay [1] is rat primary heart cells. The assay can be described thus: CK released by rat primary heart cells under hypoxia. It counts as cell-based. Conditions: hypoxia 3 hours. As for the experimental part:
(§1) Sprague Dawley rat hearts (1-2 days old) were sterilely removed and bathed three times in Ca^++ and Mg^++—free PBS to remove excess blood cells. The hearts were minced to small fragments and then agitated in a proteolytic enzyme-RDB solution (Life Science research, Inst., Nes Ziona, Israel) prepared from a fig tree extract as described previously (Brik et al., Basic Res. Cardiol. 85:237-246, 1990), Shneyvays et al., J Mol Cell Cardiol. 33:1249-1261, 2001). The RDB-solution was then diluted 1:200 in PBS at 25° C. for a few cycles of 10 min each. The supernatant suspension containing dissociated cells, to which medium containing 10% horse serum was added, was centrifuged at 500 g for 5 min. After centrifugation, the supernatant phase was discarded, and cells were re-suspended in Dulbecco's modified Eagle medium supplemented with 10% heat-inactivated horse serum and 0.5% chick embryo extract. Cell suspensions were diluted to 1×10^6 cells/ml, and […] samples were placed in 24 well plates (4 plates) collagen/gelatin coated plastic culture dishes. […] The day after, Cells were washed to remove dead cells, and growth medium was replaced, as well as every 2 days and before experiment initiation, this time with glucose-free PBS. The experiments were then performed in vitro on these cardiomyocyte cultures after 5 days following the day of procedure beginning. Right before Hypoxia experiments, cultures wells were incubated in a humidified atmosphere incubator of 5% CO2 and 95% air at 37° C. for 30 minute steady state.
(§2) Approximately 3×10^5 cardiomyocytes/well from neonatal rat hearts were cultured with glucose-free PBS and exposed to hypoxia (oxygen and glucose deprivation) for 180 min. using a procedure essentially as described by O. Golan et al. (Biochemical pharmacology, 81 (2011), pp. 1219-1227)
(§3) In brief, Hypoxia was performed in a closed chamber by replacement of air with 100% Argon. During hypoxia Oxygen levels in the N2 atmosphere was below 1%. And after 180 min. of hypoxia, the pO2 in the PBS was <0.4 Torr. Hypoxic stress injury was determined based on the activity of lactate dehydrogenase (LDH) and creatine kinase (CK) released from the cells, at the end of 3 hr. hypoxic phase, and consequently after additional 2 hr. of reoxygenation.
For both LDH and CK measurements, 25 μL aliquots of each well incubated for 180 min under hypoxia, were transfer to clean 24 wells trays, which were placed within the automatic spectrophotometer and the product of the enzyme activity was measured through a wavelength of 340 nm at 30° C., under shaking. […]
Creatine Kinase (CK) activity was determined within the cardiac cell medium (PBS) using CK-NAC Reagent (Creatine kinase, activated by N-acetyl cysteine) from Thermo Fisher Scientific Inc. Middletown, Va. […]

Assay [2] has as its system rat primary heart cells. Nature of the assay: LDH released by rat primary heart cells under hypoxia. It counts as cell-based. Conditions: hypoxia 3 hours. As for the experimental part:
as §1, §2, §3
For both LDH and CK measurements, 25 μL aliquots of each well incubated for 180 min under hypoxia, were transfer to clean 24 wells trays, which were placed within the automatic spectrophotometer and the product of the enzyme activity was measured through a wavelength of 340 nm at 30° C., under shaking. Results were expressed relatively to the control.
Lactate dehydrogenase (LDH) activity was determined within the cardiac cell medium (PBS) using LDH-L kit (Thermo Trace, Melbourne, Australia). […]
On the technique in general: Release of lactate dehydrogenase indicates damage to the cell membrane.

In another assay the test system is heart cells. Conditions: maximum protection, WO 2013/003445; cited from earlier work.

With `c1ccc(CN(CCN(Cc2ccccn2)Cc2ccccn2)Cc2ccccn2)nc1` [TPEN, N,N,N′,N′-tetrakis-(2-pyridylmethyl)-ethylenediamine], the “CK Reduction” value in the assay with rat primary heart cells [1] (sodium alginate 0, TPEN 0.3 μM) is given as 46.6%; in the assay with rat primary heart cells [1] (sodium alginate 0, TPEN 1 μM), 14.3%. The “Mean (CK released from rat heart cells)” value is on record as 0.0411 with rat primary heart cells [1] (sodium alginate 0, TPEN 0.3 μM) and 0.0643 in the assay with rat primary heart cells [1] (sodium alginate 0, TPEN 1 μM). Also, the “LDH Reduction” value in the assay with rat primary heart cells [2] (sodium alginate 0, TPEN 0.3 μM) is reported as 39.5%; in the assay on rat primary heart cells [2] (sodium alginate 0, TPEN 1 μM), 10.0%. Moreover, the “Mean (LDH released from rat heart cells)” value came to 0.0409 with rat primary heart cells [2] (sodium alginate 0, TPEN 0.3 μM) and 0.0647 in the assay with rat primary heart cells [2] (sodium alginate 0, TPEN 1 μM). Further, the “protection from hypoxia stress injury” value in the assay with heart cells is recorded as no more than 70%.
